The target of experiment [1] is T1, DP receptor (Homo sapiens, UniProt Q13258).
T1 construct: endogenous in cells; host or cells: washed platelets from peripheral blood of a healthy volunteer
T1 sequence (Q13258 1-359): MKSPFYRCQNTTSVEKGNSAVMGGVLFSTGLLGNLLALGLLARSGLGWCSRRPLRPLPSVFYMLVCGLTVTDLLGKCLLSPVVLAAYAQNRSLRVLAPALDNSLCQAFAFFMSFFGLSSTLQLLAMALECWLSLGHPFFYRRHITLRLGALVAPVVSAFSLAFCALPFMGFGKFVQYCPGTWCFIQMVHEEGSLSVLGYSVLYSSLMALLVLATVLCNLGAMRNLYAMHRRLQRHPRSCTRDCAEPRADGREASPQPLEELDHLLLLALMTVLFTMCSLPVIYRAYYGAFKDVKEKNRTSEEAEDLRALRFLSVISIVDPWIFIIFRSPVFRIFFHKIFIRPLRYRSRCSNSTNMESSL
Put plainly: cAMP assay with washed platelets (PGD2-stimulated cAMP, HTRF). It is filed as cell-based. The following applies: 100 nM PGD2, cAMP by HTRF, read-out: IC50 (50% DP-inhibitory concentration in the cAMP assay). The method, then: 30 ml of peripheral blood was collected from a healthy volunteer using a syringe containing one ninth amount of 3.8% sodium citrate for diagnosis. After being centrifuged at 180 g for 10 minutes at room temperature, a supernatant was collected and used as Platelet Rich Plasma (PRP). The resulting PRP was washed with wash buffer and centrifuged three times (Washed Platelet: WP) and platelets were counted by a microcell counter. WP was added to a plate in amount of 1.5×10^8/assay and the plate was treated with 3-isobutyl-1-methylxanthin (IBMX; 0.5 mM) for 5 minutes. A reaction was initiated by adding 100 nM of PGD2 5 min after an addition of a test compound. The reaction was terminated with an addition of 1N hydrochloric acid after 2 minutes and the cells were destructed using 12% triton X-100. An amount of cAMP in the supernatant was assayed by Homogeneous […] (HTRF)
Background: Cyclic AMP is a second messenger, typically raised through Gs and lowered through Gi signalling.

Experiment [2] has as its target T1, DP receptor. Put plainly: Receptor binding assay, [3H]-PGD2, platelet membrane. To be noted: [3H]-PGD2, human platelet membrane. The method, then:
A prepared WP was homogenated and a membrane fraction was collected with high-speed centrifugation. A compound of the present invention or a reference compound A (No. IC-73 in WO 2003/097598) was added to the plate and [^3H]-PGD2 was also added. A platelet membrane, a protein concentration is 2 mg/mL, was added and mixed in the plate, and placed on ice for 2 hours. The reaction solution was transferred to a low protein-adsorptive filter and washed with a wash solution eight times using a cell harvester. After the final washing, water was removed sufficiently, and micoscinti was added. DP inhibitory activity was investigated by measuring [^3H] by using Micro Beta.

The next experiment has as its system Brown Norway (BN) Rats. Put plainly: OVA asthma model of rat (hyperresponsive airway, infiltration of inflammatory cells, mucus secretion). To be noted: 10 mg/kg p.o. once a day for three days; for inhibition rate (%) mucus-secretion: mucin in airway lavage fluid vs control group; for inhibition rate (%) infiltration of inflammatory cells: total cell number in bronchoalveolar washings vs control group; for inhibition rate (%) increased hyperresponsive airway: vs control group, AUC of acetylcholine response. It is filed as in vivo. The protocol:
Brown Norway (BN) Rats were sensitized by i.p. administration of 0.1 mg/mL of ovalbumin (OVA) and 1 mg of aluminum hydroxide gel. A solution of 1% OVA was aerosolized by ultrasonic nebulizer (NE-U 17) and the rats were subjected to inhalation exposure of the aerosol for 30 minutes in an exposing chamber 12, 19, 26 and 33 days after the sensitization. One hour before the 4th exposure of the antigen, compounds of the present invention were administered in a dose of 10 mg/kg p.o. once a day for three days consecutively. In a control group, 0.5% of methyl cellulose was administered in place of the compound of the present invention.
Under pentobarbital anesthesia (80 mg/kg, i.p.), acetylcholine (3.9, 7.8, 15.6, 31.3, 62.5, 125, 250 and 500 μg/kg) was injected to jugular vein of the rats successively from a lower dose at intervals of 5 minutes three days after the fourth exposure to the antigen, and immediate contractile reaction of airways (an increase of insufflation pressure) was measured by a modified method of Konnzett & Rössler. Inhibition rate of increased hyperresponsive airway against the control group was calculated based on area under curve (AUC) obtained from concentration-response curve of acetylcholine.
After the measurement of increased hyperresponsive airway was completed, bronchoalveoli of the rats were washed with 5 mL of saline three times. Total cell number in the washings was counted by a hemacytometer under light microscope, and inhibition rates of infiltration of inflammatory cells against the control group were calculated. Further, muchin in the airway lavage fluid was measured by ELIZA method using jacalin, a muchin-binding lectin, and the inhibition rates of mucus-secretion against the control group were calculated.

pIC50, pKi: −log10 of the molar value.

The term pKi denotes the Ki on a negative log10 scale, so that one unit is a factor of ten.

As for `CC(C)Oc1ccc(S(=O)(=O)N2CCC(c3cn(CC(=O)O)c4ncccc34)CC2)cc1` [Compound I-1], the pIC50 at DP receptor [1] was 9.24. This molecule also gave a pKi on DP receptor [2] of 9.00. In the experiment with Brown Norway (BN) Rats, the “inhibition rate (%) mucus-secretion” value came to 68%, the “inhibition rate (%) infiltration of inflammatory cells” value (shortened to “inhibition rate (%) infiltration”) worked out at 63% and the “inhibition rate (%) increased hyperresponsive airway” value is on record as 55%.
Regarding `CC[C@@H](C)Oc1ccc(S(=O)(=O)N2CCC(c3cn(CC(=O)O)c4ncccc34)CC2)cc1` [Compound I-6], the pIC50 on DP receptor [1] was 9.03. The pKi at DP receptor [2] was 9.00. In the experiment on Brown Norway (BN) Rats, the “inhibition rate (%) mucus-secretion” value is 77%, the “inhibition rate (%) infiltration” value amounted to 60% and the “inhibition rate (%) increased hyperresponsive airway” value was 69%.
For `CC(C)Oc1ccc(S(=O)(=O)N2CCC(c3cn(CC(=O)O)c4nc(Br)ccc34)CC2)cc1` [Compound I-13], the pIC50 at DP receptor [1] was 9.29. For the same molecule, the pKi at DP receptor [2] is 9.07. Also, in the experiment with Brown Norway (BN) Rats, the “inhibition rate (%) mucus-secretion” value is given as 44%, the “inhibition rate (%) infiltration” value was 62% and the “inhibition rate (%) increased hyperresponsive airway” value was 58%.
In the same order, the values of `COc1ccc2c(C3CCN(S(=O)(=O)c4ccc(OC(C)C)cc4)CC3)cn(CC(=O)O)c2n1` [Compound I-14] are 9.48, 9.21, 88%, 68% and 84%.
On to `CC(C)Oc1ccc(S(=O)(=O)N2CCC(c3cn(CC(=O)O)c4nc(-c5ccccc5)ccc34)CC2)cc1` [Compound I-16], for which the pIC50 at DP receptor [1] was 9.19.
On to `CC(C)Oc1ccc(S(=O)(=O)N2CCC(c3cn(CC(=O)O)c4nc(-c5ccc(F)cc5)ccc34)CC2)cc1` [Compound I-17], for which, at DP receptor [1], the pIC50 was 9.06. Moreover, the negative logarithm of the Ki (pKi) at DP receptor [2] was 9.60.
`CC(C)Oc1ccc(S(=O)(=O)N2CCC(c3cn(CC(=O)O)c4nc(-c5ccccn5)ccc34)CC2)cc1` [Compound I-19]: the pIC50 on DP receptor [1] is 8.66.
For `CC(C)Oc1ccc(S(=O)(=O)N2CCC(c3cn(CC(=O)O)c4nc(-c5nccs5)ccc34)CC2)cc1` [Compound I-20], the pIC50 at DP receptor [1] was 9.19. The pKi at DP receptor [2] was 9.32.
The matching figures for `CC(C)Oc1ccc(S(=O)(=O)N2CCC(c3cn(CC(=O)O)c4nc(NC(=O)OC(C)(C)C)ccc34)CC2)cc1` [Compound I-21]: 8.72 and 9.29.
Take `CC(C)Oc1ccc(S(=O)(=O)N2CCC(c3cn(CC(=O)O)c4nc(-c5ccoc5)ccc34)CC2)cc1` [Compound I-25]: the pIC50 at DP receptor [1] was 8.96.
Still for that read-out and setting: for `CC(C)Oc1ccc(S(=O)(=O)N2CCC(c3cn(CC(=O)O)c4nc(-c5ccco5)ccc34)CC2)cc1` [Compound I-26] the value was 8.77; for `CCOc1ccc2c(C3CCN(S(=O)(=O)c4ccc(OC(C)C)cc4)CC3)cn(CC(=O)O)c2n1` [Compound I-29], 8.82; for `CC(C)Oc1ccc(S(=O)(=O)N2CCC(c3cn(CC(=O)O)c4nc(OCc5ccccc5)ccc34)CC2)cc1` [Compound I-31], 8.77.

Values taken from patent US20110028717A1, “AZAINDOLE DERIVATIVE HAVING PGD2 RECEPTOR ANTAGONISTIC ACTIVITY” (priority 2005, published 2011).
